# Measured values from patent US9175011B2, “Morpholino substituted urea or carbamate derivatives as MTOR inhibitors” (CELLZOME LIMITED, priority 2011, dated 2015).
# Assays:
# PI3K beta (PI3Kb) = target: T1, PI3K beta (PI3Kb) (Homo sapiens, UniProt P42338); assay: kinobeads assay, PI3K beta; assay type: binding; details: Jurkat cell lysate, read-out: Inhibition values (IC50) PI3Kb
# T1 construct: Jurkat cells were homogenized in a Potter S homogenizer in lysis buffer; endogenous in cells; host or cells: Jurkat, clone E6-1 (ATCC TIB-152) lysate
# Procedure: (§1) The compounds of the present invention as described were tested in the mTOR kinobeads assay as described below. Briefly, test compounds (at various concentrations) and the affinity matrix (1:1 mixture of beads with immobilized phenylthiazole ligand 1 and beads with immobilized phenylmorpholin-chromen ligand; WO 2009/098021) were added to cell lysate aliquots and allowed to bind to the proteins in the lysate sample. After the incubation time the beads with captured proteins were separated from the lysate. Bound proteins were then eluted and the presence of mTOR, PI3K alpha (PI3Kα), PI3K beta (PI3Kb), PI3K gamma (PI3Kg), PI3K delta (PI3Kd) and DNA-dependent protein kinase (DNA-PK) was detected and quantified using a specific antibody in a dot blot procedure and the Odyssey infrared detection system. Dose response curves for individual kinases were generated and IC50 values calculated. Kinobeads assays for PI3 kinases (WO-A 2008/015013) and for kinase selectivity profiling (WO 2009/098021) have been previously described.
# (§2) The affinity matrix (beads with immobilized phenylmorpholin-chromen ligand) was washed three times with 15 ml of 1×DP buffer containing 0.2% NP40 (IGEPAL® CA-630, Sigma, #13021) and then resuspended in 5.5 ml of 1×DP buffer containing 0.2% NP40 (10% beads slurry).
# (§3) 5×DP buffer: 250 mM Tris-HCl pH 7.4, 25% Glycerol, 7.5 mM MgCl2, 750 mM NaCl, 5 mM Na3VO4, filter the 5×-lysis buffer through 0.22 μm filter and store in aliquots at −80° C. The 5×DP buffer is diluted to 1×DP buffer containing 1 mM DTT and 25 mM NaF.
# (§4) Stock solutions of test compounds were prepared in DMSO. In a 96 well plate 30 μl solution of diluted test compounds at 5 mM in DMSO were prepared. Starting with this solution a 1:3 dilution series (9 steps) was prepared. For control experiments (no test compound) a buffer containing 2% DMSO was used. Compound PI-103 served as a positive control (Calbiochem catalogue number 528100).
# (§5) Jurkat cells (ATCC catalogue number TIB-152 Jurkat, clone E6-1) were grown in 1 liter Spinner flasks (Integra Biosciences, #182101) in suspension in RPMI 1640 medium (Invitrogen, #21875-034) supplemented with 10% Fetal Bovine Serum (Invitrogen) at a density between 0.15×10^6 and 1.2×10^6 cells/ml. Cells were harvested by centrifugation, washed once with 1×PBS buffer (Invitrogen, #14190-094) and cell pellets were frozen in liquid nitrogen and subsequently stored at −80° C.
# (§6) Jurkat cells were homogenized in a Potter S homogenizer in lysis buffer: 50 mM Tris-HCl, 0.8% NP40, 5% glycerol, 150 mM NaCl, 1.5 mM MgCl2, 25 mM NaF, 1 mM sodium vanadate, 1 mM DTT, pH 7.5. One complete EDTA-free tablet (protease inhibitor cocktail, Roche Diagnostics, 1873580) per 25 ml buffer was added. The material was dounced 10 times using a mechanized POTTER S, transferred to 50 ml falcon tubes, incubated for 30 minutes on ice and spun down for 10 min at 20,000 g at 4° C. (10,000 rpm in Sorvall SLA600, precooled). The supernatant was transferred to an ultracentrifuge (UZ)-polycarbonate tube (Beckmann, 355654) and spun for 1 hour at 100.000 g at 4° C. (33.500 rpm in Ti50.2, precooled). The supernatant was transferred again to a fresh 50 ml falcon tube, the protein concentration was determined by a Bradford assay (BioRad) and samples containing 50 mg of protein per aliquot were prepared. The samples were immediately used for experiments or frozen in liquid nitrogen and stored frozen at −80° C.
# (§7) Jurkat cell lysate (approximately 50 mg protein per plate) was thawed in a water bath at room temperature and then kept on ice. To the thawed cell lysate 1×DP 0.8% NP40 buffer containing protease inhibitors (1 tablet for 25 ml buffer; EDTA-free protease inhibitor cocktail; Roche Diagnostics 1873580) was added in order to reach a final protein concentration of 5 mg/ml total protein. The diluted cell lysate was stored on ice. […]
# [1] = target: T2, DNA-dependent protein kinase (DNA-PK) (Homo sapiens, UniProt P78527); assay: kinobeads assay, DNA-PK; assay type: binding; details: Jurkat cell lysate, read-out: Inhibition values (IC50) DNA-PK
# T2 construct: Jurkat cells were homogenized in a Potter S homogenizer in lysis buffer; endogenous in cells; host or cells: Jurkat, clone E6-1 (ATCC TIB-152) lysate
# Procedure: as §1, §2, §3, §4, §5, §6, §7
# PI3K gamma (PI3Kg) = target: T3, PI3K gamma (PI3Kg) (Homo sapiens, UniProt P48736); assay: kinobeads assay, PI3K gamma; assay type: binding; details: Jurkat cell lysate, read-out: Inhibition values (IC50) PI3Kg
# T3 construct: Jurkat cells were homogenized in a Potter S homogenizer in lysis buffer; endogenous in cells; host or cells: Jurkat, clone E6-1 (ATCC TIB-152) lysate
# Procedure: as §1, §2, §3, §4, §5, §6, §7
# PI3K delta (PI3Kd) = target: T4, PI3K delta (PI3Kd) (Homo sapiens, UniProt O00329); assay: kinobeads assay, PI3K delta; assay type: binding; details: Jurkat cell lysate, read-out: Inhibition values (IC50) PI3Kd
# T4 construct: Jurkat cells were homogenized in a Potter S homogenizer in lysis buffer; endogenous in cells; host or cells: Jurkat, clone E6-1 (ATCC TIB-152) lysate
# Procedure: as §1, §2, §3, §4, §5, §6, §7
# PI3K alpha (PI3Kα) = target: T5, PI3K alpha (PI3Kα) (Homo sapiens, UniProt P42336); assay: kinobeads assay, PI3K alpha; assay type: binding; details: Jurkat cell lysate, read-out: Inhibition values (IC50) PI3Ka
# T5 construct: Jurkat cells were homogenized in a Potter S homogenizer in lysis buffer; endogenous in cells; host or cells: Jurkat, clone E6-1 (ATCC TIB-152) lysate
# Procedure: as §1, §2, §3, §4, §5, §6, §7
# mTOR = target: T6, mTOR (Homo sapiens, UniProt P42345); assay: mTOR kinobeads assay (Jurkat cell lysate, dot blot detection); assay type: binding; details: read-out: Inhibition values (IC50) mTor
# T6 construct: Jurkat cells were homogenized in a Potter S homogenizer in lysis buffer; endogenous in cells; host or cells: Jurkat, clone E6-1 (ATCC TIB-152) lysate
# Procedure: as §1, §2, §3, §4, §5, §6, §7
# [2] = system: S6RP serine-240/244 phosphorylation; assay: In vitro phospho-S6 cellular assay (HEK293T/17); assay type: cell-based; details: Homo sapiens; HEK293T/17 cells, 2 hours, pS6RP Ser240/244; read-out: Inhibition values (IC50) pS6
# Description: Activation of mTOR signaling results in phosphorylation of several downstream targets. In cells, mTOR exists in two different protein complexes. The mTOR Complex-1 (mTORC1) phosphorylates and activates S6 Kinase 1 (S6K1) and S6 Kinase 2 (S6K2) (also known as p70S6K) which then phosphorylate S6 Ribosomal Protein (S6RP) (also known as RPS6)3. S6RP is phosphorylated on serine 235, senile 236, serine 240 and serine 244 by both pS6K1 and pS6K2. The mTOR Complex-2 (mTORC2) phosphorylates AKT on serine 473 which activates the AKT signaling pathway.
# The assay measures a test compound's inhibition of S6RP serine-240/244 phosphorylation and inhibition of Akt serine-473 phosphorylation in human embryonic kidney derived HEK293T/17 cells (ATCC CRL-11268).
# The HEK293T/17 cell line is maintained in DMEM media (Invitrogen catalogue number 41965-039) supplemented with 10% FCS at 37° C. in a 5% CO2 humidified incubator. Cells are seeded in 96-well plates at 40,000 cells/well (pS6RP S240/244 assay) or 80,000 cells/well (pAkt 5473 assay) in 90 μl growth media (DMEM, 2% FCS). Plates are incubated for 1 hour in a humidified incubator to allow the cells to adhere. Cells are treated with 8 concentrations of test compounds or DMSO alone for controls (final DMSO concentration 0.1%) and incubated at 37° C. for 2 hours. Then 20 μl of 5× concentrated lysis buffer (750 mM NaCl, 100 mM Tris pH7.4, 5 mM ADTA, 5 mM EGTA, 5% Triton X-100) is added, plates are sealed and incubated for 15 minutes at 4° C. with gentle shaking After cell lysis, 25 μl cell lysate is transferred to a MesoScale plate coated with an antibody to pS6RP Ser240/244 (MesoScale Discovery K150DGD-3) or an antibody to pAkt Ser 473 (MesoScale Discovery K151DGD-3). Plates have been blocked before by incubation with 150 μl MesoScale Discovery Blocking Solution-A for 1 hour at room temperature followed by washing with 150 μl 1×Tris wash buffer per well. After the transfer of the cell lysate to the MSD plate, the pS6RP (or pAkt) protein is captured on the coated antibody by incubation at room temperature for 1 hour with gentle shaking. After the capture step the plate is washed three times with 150 μl of 1× Tris wash buffer per well. Then 25 μl detection antibody conjugated with a Sulfo-Tag is added and incubated for 1 hour at room temperature with gentle shaking. Subsequently the antibody solution is removed and the plate is washed 3 times with 150 μl 1×Tris wash buffer per well and 150 μl Read buffer is added. The plates are analysed on a MSD 2400 Plate Reader (MesoScale Discovery). Data analysis is performed using nonlinear regression for a sigmoidal dose-response with a variable slope.
# T3 sequence (P48736 whole entry): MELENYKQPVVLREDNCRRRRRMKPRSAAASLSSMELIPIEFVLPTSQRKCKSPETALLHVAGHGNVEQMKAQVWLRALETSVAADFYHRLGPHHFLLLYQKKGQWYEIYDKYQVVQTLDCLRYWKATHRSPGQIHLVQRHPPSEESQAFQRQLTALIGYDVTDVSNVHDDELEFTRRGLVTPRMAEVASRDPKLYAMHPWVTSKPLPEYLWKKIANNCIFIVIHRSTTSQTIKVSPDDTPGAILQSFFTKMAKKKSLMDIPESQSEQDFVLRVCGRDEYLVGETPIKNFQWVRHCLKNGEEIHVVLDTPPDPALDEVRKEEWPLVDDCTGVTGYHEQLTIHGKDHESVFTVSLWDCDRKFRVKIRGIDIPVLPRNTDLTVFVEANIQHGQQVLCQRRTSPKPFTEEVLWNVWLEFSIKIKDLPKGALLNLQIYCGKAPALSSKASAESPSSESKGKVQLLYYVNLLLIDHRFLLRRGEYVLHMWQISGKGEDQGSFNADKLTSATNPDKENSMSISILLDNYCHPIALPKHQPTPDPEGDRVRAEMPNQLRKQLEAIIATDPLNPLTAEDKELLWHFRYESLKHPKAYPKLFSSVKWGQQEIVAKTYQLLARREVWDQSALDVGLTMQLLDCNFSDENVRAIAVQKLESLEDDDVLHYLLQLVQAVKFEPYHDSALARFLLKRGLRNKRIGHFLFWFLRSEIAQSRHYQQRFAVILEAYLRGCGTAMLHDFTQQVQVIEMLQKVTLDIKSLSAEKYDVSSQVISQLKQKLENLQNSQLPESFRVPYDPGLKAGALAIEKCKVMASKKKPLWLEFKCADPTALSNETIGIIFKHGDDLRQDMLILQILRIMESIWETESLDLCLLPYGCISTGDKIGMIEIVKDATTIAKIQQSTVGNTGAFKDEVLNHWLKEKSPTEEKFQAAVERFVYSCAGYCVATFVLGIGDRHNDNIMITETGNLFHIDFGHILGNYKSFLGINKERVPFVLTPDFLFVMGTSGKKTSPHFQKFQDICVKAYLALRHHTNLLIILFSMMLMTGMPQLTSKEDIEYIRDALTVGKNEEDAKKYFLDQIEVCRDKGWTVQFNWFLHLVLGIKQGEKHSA
# T1 sequence (P42338 whole entry): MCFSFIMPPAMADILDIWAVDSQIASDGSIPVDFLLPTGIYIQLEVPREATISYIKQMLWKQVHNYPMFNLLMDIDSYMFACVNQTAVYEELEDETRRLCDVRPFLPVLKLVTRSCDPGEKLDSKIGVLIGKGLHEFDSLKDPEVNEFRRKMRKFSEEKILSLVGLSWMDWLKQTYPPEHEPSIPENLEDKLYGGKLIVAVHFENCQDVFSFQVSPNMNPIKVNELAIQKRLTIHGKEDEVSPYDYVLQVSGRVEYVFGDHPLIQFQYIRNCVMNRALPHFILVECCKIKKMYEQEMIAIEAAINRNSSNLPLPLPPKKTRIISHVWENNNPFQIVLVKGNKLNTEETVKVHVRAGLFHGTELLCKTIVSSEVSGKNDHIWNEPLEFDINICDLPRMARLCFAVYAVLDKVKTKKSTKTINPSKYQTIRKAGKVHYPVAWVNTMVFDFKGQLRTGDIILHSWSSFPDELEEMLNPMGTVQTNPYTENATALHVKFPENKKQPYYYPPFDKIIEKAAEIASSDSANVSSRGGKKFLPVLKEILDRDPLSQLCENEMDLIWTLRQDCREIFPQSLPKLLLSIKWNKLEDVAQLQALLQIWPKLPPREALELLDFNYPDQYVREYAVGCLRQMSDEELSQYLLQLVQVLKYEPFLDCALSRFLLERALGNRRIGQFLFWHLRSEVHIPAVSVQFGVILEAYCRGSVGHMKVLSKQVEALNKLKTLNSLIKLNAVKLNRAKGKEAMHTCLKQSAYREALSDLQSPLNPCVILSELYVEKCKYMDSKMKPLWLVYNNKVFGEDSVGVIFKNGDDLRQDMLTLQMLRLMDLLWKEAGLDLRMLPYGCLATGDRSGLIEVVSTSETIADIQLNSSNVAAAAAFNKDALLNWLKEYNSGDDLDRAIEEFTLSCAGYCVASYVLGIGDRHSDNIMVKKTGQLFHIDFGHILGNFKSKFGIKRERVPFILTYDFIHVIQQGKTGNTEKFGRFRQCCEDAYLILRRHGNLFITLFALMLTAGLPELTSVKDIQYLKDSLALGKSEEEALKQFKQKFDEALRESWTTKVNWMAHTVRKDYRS
# T1 sequence (P27986 whole entry partner): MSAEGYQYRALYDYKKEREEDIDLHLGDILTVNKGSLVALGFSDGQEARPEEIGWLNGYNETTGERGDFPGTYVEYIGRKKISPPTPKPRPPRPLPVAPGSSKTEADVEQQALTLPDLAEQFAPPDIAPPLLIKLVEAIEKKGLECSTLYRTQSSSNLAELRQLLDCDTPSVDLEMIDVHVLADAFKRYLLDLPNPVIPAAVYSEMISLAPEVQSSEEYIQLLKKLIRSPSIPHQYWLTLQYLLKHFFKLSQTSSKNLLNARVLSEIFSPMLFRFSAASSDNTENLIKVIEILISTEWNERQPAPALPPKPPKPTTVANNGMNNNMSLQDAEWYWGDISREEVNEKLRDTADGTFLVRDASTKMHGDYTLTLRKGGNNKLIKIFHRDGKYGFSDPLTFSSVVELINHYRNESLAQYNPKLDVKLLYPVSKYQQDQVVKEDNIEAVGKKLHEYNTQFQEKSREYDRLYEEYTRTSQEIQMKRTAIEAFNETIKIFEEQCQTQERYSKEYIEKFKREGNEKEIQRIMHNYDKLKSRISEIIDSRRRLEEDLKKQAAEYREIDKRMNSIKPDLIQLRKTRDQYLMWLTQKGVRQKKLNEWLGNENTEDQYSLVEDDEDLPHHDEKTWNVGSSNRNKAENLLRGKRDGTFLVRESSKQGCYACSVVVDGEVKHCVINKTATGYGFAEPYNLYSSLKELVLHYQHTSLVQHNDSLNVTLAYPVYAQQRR
# T5 sequence (P42336 whole entry): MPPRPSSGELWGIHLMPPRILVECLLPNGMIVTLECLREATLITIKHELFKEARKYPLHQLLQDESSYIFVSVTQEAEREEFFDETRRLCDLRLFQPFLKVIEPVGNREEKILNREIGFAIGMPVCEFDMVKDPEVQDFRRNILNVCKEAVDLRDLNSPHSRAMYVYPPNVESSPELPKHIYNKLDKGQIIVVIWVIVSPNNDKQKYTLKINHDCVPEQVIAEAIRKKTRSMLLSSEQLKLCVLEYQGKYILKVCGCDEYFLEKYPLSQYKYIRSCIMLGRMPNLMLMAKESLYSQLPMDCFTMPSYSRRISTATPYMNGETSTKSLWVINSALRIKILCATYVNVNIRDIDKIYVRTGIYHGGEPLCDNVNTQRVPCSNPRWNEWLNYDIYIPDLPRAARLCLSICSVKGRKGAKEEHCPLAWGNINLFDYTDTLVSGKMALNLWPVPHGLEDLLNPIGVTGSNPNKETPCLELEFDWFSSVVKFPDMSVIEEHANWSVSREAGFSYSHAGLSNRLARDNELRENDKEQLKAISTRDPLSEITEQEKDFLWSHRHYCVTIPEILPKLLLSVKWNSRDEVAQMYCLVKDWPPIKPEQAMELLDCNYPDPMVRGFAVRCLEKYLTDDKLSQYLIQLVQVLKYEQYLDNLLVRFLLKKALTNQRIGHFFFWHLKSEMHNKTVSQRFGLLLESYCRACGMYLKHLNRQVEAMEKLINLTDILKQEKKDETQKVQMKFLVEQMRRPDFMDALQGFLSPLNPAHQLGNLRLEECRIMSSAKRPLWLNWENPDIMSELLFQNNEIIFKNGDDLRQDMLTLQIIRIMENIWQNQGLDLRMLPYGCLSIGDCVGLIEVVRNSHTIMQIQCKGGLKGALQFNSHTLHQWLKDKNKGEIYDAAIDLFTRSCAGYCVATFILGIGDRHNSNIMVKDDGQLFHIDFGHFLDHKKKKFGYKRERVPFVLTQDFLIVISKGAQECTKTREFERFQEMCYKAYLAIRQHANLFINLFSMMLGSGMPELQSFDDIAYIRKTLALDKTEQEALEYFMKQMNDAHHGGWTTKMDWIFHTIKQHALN
# T5 sequence (P27986 whole entry partner): as the sequence (P27986 whole entry partner) above
# T4 sequence (O00329 whole entry): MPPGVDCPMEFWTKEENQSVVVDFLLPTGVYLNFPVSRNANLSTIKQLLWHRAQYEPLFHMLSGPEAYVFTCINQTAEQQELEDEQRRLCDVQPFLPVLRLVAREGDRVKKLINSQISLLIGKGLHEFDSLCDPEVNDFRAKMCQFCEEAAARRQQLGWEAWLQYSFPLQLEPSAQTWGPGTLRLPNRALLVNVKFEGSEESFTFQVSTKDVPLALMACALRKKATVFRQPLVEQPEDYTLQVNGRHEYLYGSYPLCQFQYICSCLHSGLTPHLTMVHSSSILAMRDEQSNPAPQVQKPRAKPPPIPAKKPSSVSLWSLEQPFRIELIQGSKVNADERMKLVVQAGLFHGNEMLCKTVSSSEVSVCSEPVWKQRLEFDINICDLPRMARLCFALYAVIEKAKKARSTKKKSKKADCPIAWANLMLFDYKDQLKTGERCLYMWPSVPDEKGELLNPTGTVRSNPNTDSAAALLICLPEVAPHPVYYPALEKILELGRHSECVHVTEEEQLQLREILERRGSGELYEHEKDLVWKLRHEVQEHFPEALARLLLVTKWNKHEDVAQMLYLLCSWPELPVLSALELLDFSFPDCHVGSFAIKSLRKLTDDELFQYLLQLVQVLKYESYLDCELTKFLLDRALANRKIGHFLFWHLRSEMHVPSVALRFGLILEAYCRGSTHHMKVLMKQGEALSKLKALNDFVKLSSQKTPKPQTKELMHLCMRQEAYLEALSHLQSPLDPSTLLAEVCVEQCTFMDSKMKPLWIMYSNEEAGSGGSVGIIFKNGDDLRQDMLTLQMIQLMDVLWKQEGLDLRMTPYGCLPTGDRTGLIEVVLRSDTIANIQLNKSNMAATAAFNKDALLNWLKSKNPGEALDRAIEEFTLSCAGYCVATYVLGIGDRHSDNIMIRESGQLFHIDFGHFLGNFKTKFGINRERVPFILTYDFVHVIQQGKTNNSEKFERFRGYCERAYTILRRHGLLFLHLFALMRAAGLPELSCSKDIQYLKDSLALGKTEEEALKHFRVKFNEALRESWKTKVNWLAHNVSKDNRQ
# T4 sequence (P27986 whole entry partner): as the sequence (P27986 whole entry partner) above
Compound,IC50 (PI3K beta (PI3Kb)),IC50 [1],IC50 (PI3K gamma (PI3Kg)),IC50 (PI3K delta (PI3Kd)),IC50 (PI3K alpha (PI3Kα)),IC50 (mTOR),IC50 [2]
"CCS(=O)(=O)c1ccccc1-c1nc(-c2ccc(NC(=O)NC3CC3)cc2)nc(N2CCOC[C@@H]2C)n1 [Example 17, (S)-1-cyclopropyl-3-(4-(4-(2-(ethylsulfonyl)phenyl)-6-(3-methylmorpholino)-1,3,5-triazin-2-yl)phenyl)urea]",> 10 µM,> 10 µM,> 10 µM,> 10 µM,> 10 µM,0.1 to 1 µM,< 0.1 µM
"C[C@H]1COCCN1c1nc(-c2ccc(NC(=O)NCC(O)C(F)(F)F)cc2)nc(-c2ccccc2S(C)(=O)=O)n1 (stereo partly drawn) [Example 33, 1-(4-(4-((S)-3-methylmorpholino)-6-(2-(methylsulfonyl)phenyl)-1,3,5-triazin-2-yl)phenyl)-3-(3,3,3-trifluoro-2-hydroxypropyl)urea]",> 10 µM,> 10 µM,> 10 µM,> 10 µM,> 10 µM,0.1 to 1 µM,0.1 to 1 µM
"CS(=O)(=O)c1ccccc1-c1nc(-c2ccc(NC(=O)NC3CC3)cc2)nc(N2CCCOCC2)n1 [Example 21, 1-cyclopropyl-3-(4-(4-(2-(methylsulfonyl)phenyl)-6-(1,4-oxazepan-4-yl)-1,3,5-triazin-2-yl)phenyl)urea]",> 10 µM,> 10 µM,> 10 µM,> 10 µM,> 10 µM,0.1 to 1 µM,0.1 to 1 µM
"CC1(C)COCCN1c1nc(-c2ccc(NC(=O)NC3CC3)cc2)nc(-c2ccccc2S(C)(=O)=O)n1 [Example 22, 1-cyclopropyl-3-(4-(4-(3,3-dimethylmorpholino)-6-(2-(methylsulfonyl)phenyl)-1,3,5-triazin-2-yl)phenyl)urea]",> 10 µM,> 10 µM,> 10 µM,> 10 µM,> 10 µM,0.1 to 1 µM,< 0.1 µM
"CS(=O)(=O)c1ccccc1-c1nc(-c2ccc(NC(=O)NC3CC3)cc2)nc(N2CC3CCC(C2)O3)n1 [Example 11, 1-(4-(4-(8-oxa-3-azabicyclo[3.2.1]octan-3-yl)-6-(2-(methylsulfonyl)phenyl)-1,3,5-triazin-2-yl)phenyl)-3-cyclopropylurea]",> 10 µM,> 10 µM,> 10 µM,> 10 µM,> 10 µM,< 0.1 µM,< 0.1 µM
"C[C@H]1COCCN1c1nc(-c2ccc(NC(=O)Nc3cccnc3)cc2)nc(-c2ccccc2S(C)(=O)=O)n1 [Example 3, (S)-1-(4-(4-(3-methylmorpholino)-6-(2-(methylsulfonyl)phenyl)-1,3,5-triazin-2-yl)phenyl)-3-(pyridin-3-yl)urea]",> 10 µM,> 10 µM,> 10 µM,> 10 µM,> 10 µM,0.1 to 1 µM,< 0.1 µM
"C[C@H]1COCCN1c1nc(-c2ccc(NC(=O)NC3CC3)cc2)nc(-c2ccccc2S(=O)(=O)N2CCCC2)n1 [Example 26, (S)-1-cyclopropyl-3-(4-(4-(3-methylmorpholino)-6-(2-(pyrrolidin-1-ylsulfonyl)phenyl)-1,3,5-triazin-2-yl)phenyl)urea]",> 10 µM,> 10 µM,> 10 µM,> 10 µM,> 10 µM,0.1 to 1 µM,< 0.1 µM
"CCCNC(=O)Nc1ccc(-c2nc(-c3ccccc3S(C)(=O)=O)nc(N3CCOC[C@@H]3C)n2)cc1 [Example 18, (S)-1-(4-(4-(3-methylmorpholino)-6-(2-(methylsulfonyl)phenyl)-1,3,5-triazin-2-yl)phenyl)-3-propylurea]",> 10 µM,> 10 µM,> 10 µM,> 10 µM,> 10 µM,0.1 to 1 µM,< 0.1 µM
"CS(=O)(=O)c1ccccc1-c1nc(-c2ccc(NC(=O)NC3CC3)cc2)nc(N2CCOCC2CO)n1 (centres unmarked) [Example 23, 1-cyclopropyl-3-(4-(4-(3-(hydroxymethyl)morpholino)-6-(2-(methylsulfonyl)phenyl)-1,3,5-triazin-2-yl)phenyl)urea]",> 10 µM,> 10 µM,> 10 µM,> 10 µM,> 10 µM,1 to 10 µM,–
"C[C@H]1COCCN1c1nc(-c2ccc(NC(=O)NC3CCCCC3)cc2)nc(-c2ccccc2S(C)(=O)=O)n1 [Example 28, (S)-1-cyclohexyl-3-(4-(4-(3-methylmorpholino)-6-(2-(methylsulfonyl)phenyl)-1,3,5-triazin-2-yl)phenyl)urea]",> 10 µM,> 10 µM,> 10 µM,> 10 µM,> 10 µM,1 to 10 µM,–
